Tests used:
[1] = test system: R0 conformation of the human PTHR1; conditions: cited from earlier work
hPTHR1 = target: T1, hPTHR1 (Homo sapiens, UniProt Q03431); assay: cAMP induction; type: cell-based; conditions: Table 1; ratio of cAMP EC50 values, hPTHR1, GP2.3 cells
T1 sequence (Q03431 27-593): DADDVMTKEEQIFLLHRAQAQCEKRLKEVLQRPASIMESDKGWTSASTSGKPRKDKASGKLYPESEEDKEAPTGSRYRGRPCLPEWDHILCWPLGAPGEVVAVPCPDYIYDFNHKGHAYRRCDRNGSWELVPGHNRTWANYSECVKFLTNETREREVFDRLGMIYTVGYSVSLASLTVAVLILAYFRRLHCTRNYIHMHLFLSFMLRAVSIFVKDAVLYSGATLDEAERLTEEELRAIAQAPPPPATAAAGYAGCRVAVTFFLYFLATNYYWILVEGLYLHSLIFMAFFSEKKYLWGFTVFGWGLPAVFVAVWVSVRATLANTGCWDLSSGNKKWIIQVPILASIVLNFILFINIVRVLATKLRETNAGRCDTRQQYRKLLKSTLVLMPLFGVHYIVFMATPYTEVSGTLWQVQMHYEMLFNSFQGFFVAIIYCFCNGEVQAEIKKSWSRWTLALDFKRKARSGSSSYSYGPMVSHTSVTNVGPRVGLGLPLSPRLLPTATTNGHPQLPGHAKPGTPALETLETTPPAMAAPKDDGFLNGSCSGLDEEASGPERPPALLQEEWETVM

CD1 mice = conditions: subcutaneous injection; cited from earlier work

Derivative EC50/PTH(1-34) EC50 (hPTHR1): 4.2
Substance: M-PTH(1-34) [Peptide 27]
binding to the R0 state of PTHR1, rank in words, earlier studies [1]: binds even more tightly than does 1 | duration of calcemic effect in mice, earlier studies (CD1 mice): long-lasting calcemic effect

Reference: PMC6016400 (Journal of medicinal chemistry, 2017)
